# Assays:
# Test in all cases: relative viability (nuclei count vs DMSO), 5 days (fraction); higher = more cells survive
# LU99A = test system: LU99A
# Method in brief: (§1)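 One day after seeding in 1536-well plates, lung cancer cell lines were dosed by pin tool. Dosing was either single-drug or a fixed anchor-drug dose plus five library-drug doses (not always all listed) in √10 steps. After 5 days, nuclei were stained in one fix-and-stain step and counted on 4× images, and relative viability is the nuclei count of treated wells over that of vehicle wells, given as the median of duplicate plates.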
# HCC-366 = test system: HCC-366
# Method in brief: as §1
# PC-3 [JPC-3] = test system: PC-3 [JPC-3]
# Method in brief: as §1
# NCI-H2087 = test system: NCI-H2087
# Method in brief: as §1
# NCI-H3122 = test system: NCI-H3122
# Method in brief: as §1
# NCI-H1755 = test system: NCI-H1755
# Method in brief: as §1
# NCI-H1395 = test system: NCI-H1395
# Method in brief: as §1
# HCC-78 = test system: HCC-78
# Method in brief: as §1
# NCI-H1651 = test system: NCI-H1651
# Method in brief: as §1
# NCI-H2228 = test system: NCI-H2228
# Method in brief: as §1
# UMC-11 = test system: UMC-11
# Method in brief: as §1
# NCI-H460 = test system: NCI-H460
# Method in brief: as §1
# RERF-LC-KJ = test system: RERF-LC-KJ
# Method in brief: as §1
# LC-2-ad = test system: LC-2-ad
# Method in brief: as §1
# NCI-H1793 = test system: NCI-H1793
# Method in brief: as §1
# CAL-12T = test system: CAL-12T
# Method in brief: as §1
# ABC-1 = test system: ABC-1
# Method in brief: as §1
# LOU-NH91 = test system: LOU-NH91
# Method in brief: as §1
# NCI-H1734 = test system: NCI-H1734
# Method in brief: as §1
# NCI-H2170 = test system: NCI-H2170
# Method in brief: as §1
# NCI-H1944 = test system: NCI-H1944
# Method in brief: as §1
# NCI-H2405 = test system: NCI-H2405
# Method in brief: as §1
smiles,measurement,setting,value
NC(=O)Nc1cc(-c2cccc(F)c2)sc1C(=O)N[C@H]1CCCNC1 [AZD7762] + CS(=O)(=O)CCNCc1ccc(-c2ccc3ncnc(Nc4ccc(OCc5cccc(F)c5)c(Cl)c4)c3c2)o1 [Lapatinib] (partner 2 µM),relative viability,LU99A; first compound 0.01 µM,0.954
same,relative viability,LU99A; first compound 0.03162 µM,1.1
same,relative viability,LU99A; first compound 0.1 µM,0.952
same,relative viability,LU99A; first compound 0.3162 µM,0.789
same,relative viability,LU99A; first compound 1 µM,0.416
same,relative viability,HCC-366; first compound 0.01 µM,0.991
same,relative viability,HCC-366; first compound 0.03162 µM,1.12
same,relative viability,HCC-366; first compound 0.1 µM,0.879
same,relative viability,HCC-366; first compound 0.3162 µM,0.375
same,relative viability,HCC-366; first compound 1 µM,0.0771
same,relative viability,PC-3 [JPC-3]; first compound 0.01 µM,0.473
same,relative viability,PC-3 [JPC-3]; first compound 0.03162 µM,0.447
same,relative viability,PC-3 [JPC-3]; first compound 0.1 µM,0.372
same,relative viability,PC-3 [JPC-3]; first compound 0.3162 µM,0.46
same,relative viability,PC-3 [JPC-3]; first compound 1 µM,0.432
same,relative viability,NCI-H2087; first compound 0.01 µM,1.23
same,relative viability,NCI-H2087; first compound 0.03162 µM,1.01
same,relative viability,NCI-H2087; first compound 0.1 µM,1.01
same,relative viability,NCI-H2087; first compound 0.3162 µM,1.24
same,relative viability,NCI-H2087; first compound 1 µM,1.16
same,relative viability,NCI-H3122; first compound 0.01 µM,0.978
same,relative viability,NCI-H3122; first compound 0.03162 µM,1.06
same,relative viability,NCI-H3122; first compound 0.1 µM,1.03
same,relative viability,NCI-H3122; first compound 0.3162 µM,0.907
same,relative viability,NCI-H3122; first compound 1 µM,1.09
same,relative viability,NCI-H1755; first compound 0.01 µM,1.07
same,relative viability,NCI-H1755; first compound 0.03162 µM,1.1
same,relative viability,NCI-H1755; first compound 0.1 µM,1.17
same,relative viability,NCI-H1755; first compound 0.3162 µM,0.924
same,relative viability,NCI-H1755; first compound 1 µM,0.364
same,relative viability,NCI-H1395; first compound 0.01 µM,1.04
same,relative viability,NCI-H1395; first compound 0.03162 µM,1.06
same,relative viability,NCI-H1395; first compound 0.1 µM,1.05
same,relative viability,NCI-H1395; first compound 0.3162 µM,0.543
same,relative viability,NCI-H1395; first compound 1 µM,0.362
same,relative viability,HCC-78; first compound 0.01 µM,0.863
same,relative viability,HCC-78; first compound 0.03162 µM,0.791
same,relative viability,HCC-78; first compound 0.1 µM,0.842
same,relative viability,HCC-78; first compound 0.3162 µM,0.653
same,relative viability,HCC-78; first compound 1 µM,0.304
same,relative viability,NCI-H1651; first compound 0.01 µM,0.93
same,relative viability,NCI-H1651; first compound 0.03162 µM,0.832
same,relative viability,NCI-H1651; first compound 0.1 µM,0.909
same,relative viability,NCI-H1651; first compound 0.3162 µM,0.607
same,relative viability,NCI-H1651; first compound 1 µM,0.195
same,relative viability,NCI-H2228; first compound 0.01 µM,1.28
same,relative viability,NCI-H2228; first compound 0.03162 µM,1.46
same,relative viability,NCI-H2228; first compound 0.1 µM,1.22
same,relative viability,NCI-H2228; first compound 0.3162 µM,0.34
same,relative viability,NCI-H2228; first compound 1 µM,0.231
same,relative viability,UMC-11; first compound 0.01 µM,0.936
same,relative viability,UMC-11; first compound 0.03162 µM,1.01
same,relative viability,UMC-11; first compound 0.1 µM,0.871
same,relative viability,UMC-11; first compound 0.3162 µM,0.743
same,relative viability,UMC-11; first compound 1 µM,0.398
same,relative viability,NCI-H460; first compound 0.01 µM,1.07
same,relative viability,NCI-H460; first compound 0.03162 µM,0.972
same,relative viability,NCI-H460; first compound 0.1 µM,0.824
same,relative viability,NCI-H460; first compound 0.3162 µM,0.467
same,relative viability,NCI-H460; first compound 1 µM,0.0597
same,relative viability,RERF-LC-KJ; first compound 0.01 µM,0.865
same,relative viability,RERF-LC-KJ; first compound 0.03162 µM,0.894
same,relative viability,RERF-LC-KJ; first compound 0.1 µM,0.849
same,relative viability,RERF-LC-KJ; first compound 0.3162 µM,0.819
same,relative viability,RERF-LC-KJ; first compound 1 µM,0.956
same,relative viability,LC-2-ad; first compound 0.01 µM,1.05
same,relative viability,LC-2-ad; first compound 0.03162 µM,1.04
same,relative viability,LC-2-ad; first compound 0.1 µM,0.47
same,relative viability,LC-2-ad; first compound 0.3162 µM,0.392
same,relative viability,LC-2-ad; first compound 1 µM,0.258
same,relative viability,NCI-H1793; first compound 0.01 µM,1.08
same,relative viability,NCI-H1793; first compound 0.03162 µM,0.721
same,relative viability,NCI-H1793; first compound 0.1 µM,0.805
same,relative viability,NCI-H1793; first compound 0.3162 µM,0.874
same,relative viability,NCI-H1793; first compound 1 µM,0.261
same,relative viability,CAL-12T; first compound 0.01 µM,0.781
same,relative viability,CAL-12T; first compound 0.03162 µM,0.649
same,relative viability,CAL-12T; first compound 0.1 µM,0.649
same,relative viability,CAL-12T; first compound 0.3162 µM,0.703
same,relative viability,CAL-12T; first compound 1 µM,0.314
same,relative viability,ABC-1; first compound 0.01 µM,1.46
same,relative viability,ABC-1; first compound 0.03162 µM,1.33
same,relative viability,ABC-1; first compound 0.1 µM,0.983
same,relative viability,ABC-1; first compound 0.3162 µM,1.2
same,relative viability,ABC-1; first compound 1 µM,0.981
same,relative viability,LOU-NH91; first compound 0.01 µM,0.792
same,relative viability,LOU-NH91; first compound 0.03162 µM,0.791
same,relative viability,LOU-NH91; first compound 0.1 µM,0.753
same,relative viability,LOU-NH91; first compound 0.3162 µM,0.572
same,relative viability,LOU-NH91; first compound 1 µM,0.639
same,relative viability,NCI-H1734; first compound 0.01 µM,0.974
same,relative viability,NCI-H1734; first compound 0.03162 µM,1.16
same,relative viability,NCI-H1734; first compound 0.1 µM,1.13
same,relative viability,NCI-H1734; first compound 0.3162 µM,0.946
same,relative viability,NCI-H1734; first compound 1 µM,0.67
same,relative viability,NCI-H2170; first compound 0.01 µM,0.289
same,relative viability,NCI-H2170; first compound 0.03162 µM,0.256
same,relative viability,NCI-H2170; first compound 0.1 µM,0.26
same,relative viability,NCI-H2170; first compound 0.3162 µM,0.263
same,relative viability,NCI-H2170; first compound 1 µM,0.257
same,relative viability,NCI-H1944; first compound 0.01 µM,0.977
same,relative viability,NCI-H1944; first compound 0.03162 µM,0.876
same,relative viability,NCI-H1944; first compound 0.1 µM,1.01
same,relative viability,NCI-H1944; first compound 0.3162 µM,0.846
same,relative viability,NCI-H1944; first compound 1 µM,1.01
same,relative viability,NCI-H2405; first compound 0.01 µM,1.11
same,relative viability,NCI-H2405; first compound 0.03162 µM,1.41
same,relative viability,NCI-H2405; first compound 0.1 µM,0.998
same,relative viability,NCI-H2405; first compound 0.3162 µM,1.01
same,relative viability,NCI-H2405; first compound 1 µM,0.422

# Reference: the supplement of paper PMC10307832
